Measured values published in ChEMBL document CHEMBL5584255, “Synthesis and antibacterial medicinal evaluation of carbothioamido hydrazonyl thiazolylquinolone with multitargeting antimicrobial potential to combat increasingly global resistance” (Eur J Med Chem, 2024).
Values after ≈ are worked out from the molar mass of the structure shown.

Key:
Type in all cases: functional
Candida albicans [1] = test: Antifungal activity against Candida albicans ATCC 90023
Candida tropicalis = test: Antifungal activity against drug-resistant Candida tropicalis
Staphylococcus aureus [2] = test: Antibacterial activity against methicillin-resistant Staphylococcus aureus N315 by microbroth dilution method
Aspergillus fumigatus = test: Antifungal activity against Aspergillus fumigatus
Acinetobacter baumannii = test: Antibacterial activity against Acinetobacter baumannii by microbroth dilution method
Escherichia coli [3] = test: Antibacterial activity against drug-resistant Escherichia coli by microbroth dilution method
Escherichia coli [4] = test: Antibacterial activity against Escherichia coli ATCC 25922 by microbroth dilution method
Staphylococcus aureus [5] = test: Antibacterial activity against Staphylococcus aureus ATCC 29213 by microbroth dilution method
Enterococcus faecalis = test: Antibacterial activity against drug-resistant Enterococcus faecalis by microbroth dilution method
Staphylococcus aureus [6] = test: Antibacterial activity against drug-resistant Staphylococcus aureus by microbroth dilution method
Candida albicans [7] = test: Antifungal activity against drug-resistant Candida albicans
Staphylococcus aureus [8] = test: Antibacterial activity against Staphylococcus aureus ATCC 25923 by microbroth dilution method
Klebsiella pneumoniae = test: Antibacterial activity against Klebsiella pneumoniae by microbroth dilution method
Pseudomonas aeruginosa [9] = test: Antibacterial activity against Pseudomonas aeruginosa ATCC 27853 by microbroth dilution method
Candida parapsilosis = test: Antifungal activity against Candida parapsilosis ATCC 22019; settings: Lodderomyces parapsilosis
Pseudomonas aeruginosa [10] = test: Antibacterial activity against Pseudomonas aeruginosa by microbroth dilution method

Row | SMILES | MIC (Candida albicans [1]) | MIC (Candida tropicalis) | MIC (Staphylococcus aureus [2]) | MIC (Aspergillus fumigatus) | MIC (Acinetobacter baumannii) | MIC (Escherichia coli [3]) | MIC (Escherichia coli [4]) | MIC (Staphylococcus aureus [5]) | MIC (Enterococcus faecalis) | MIC (Staphylococcus aureus [6]) | MIC (Candida albicans [7]) | MIC (Staphylococcus aureus [8]) | MIC (Klebsiella pneumoniae) | MIC (Pseudomonas aeruginosa [9]) | MIC (Candida parapsilosis) | MIC (Pseudomonas aeruginosa [10])
1 | Cc1nc(-c2c[nH]c3cc(F)c(F)cc3c2=O)cs1 | 115 µM (≈ 32 µg/mL) | 921 µM (≈ 256 µg/mL) | 460 µM (≈ 128 µg/mL) | 921 µM (≈ 256 µg/mL) | 1840 µM (≈ 513 µg/mL) | 1840 µM (≈ 513 µg/mL) | 460 µM (≈ 128 µg/mL) | 921 µM (≈ 256 µg/mL) | 460 µM (≈ 128 µg/mL) | 1840 µM (≈ 513 µg/mL) | 460 µM (≈ 128 µg/mL) | 460 µM (≈ 128 µg/mL) | 1840 µM (≈ 513 µg/mL) | 460 µM (≈ 128 µg/mL) | 1840 µM (≈ 513 µg/mL) | 921 µM (≈ 256 µg/mL)
2 | C/C(Cn1cc(-c2csc(C)n2)c(=O)c2cc(F)c(Cl)cc21)=N\NC(N)=S | 605 µM (≈ 256 µg/mL) | 303 µM (≈ 128 µg/mL) | 605 µM (≈ 256 µg/mL) | 1210 µM (≈ 513 µg/mL) | 605 µM (≈ 256 µg/mL) | 605 µM (≈ 256 µg/mL) | 605 µM (≈ 256 µg/mL) | 605 µM (≈ 256 µg/mL) | 605 µM (≈ 256 µg/mL) | 605 µM (≈ 256 µg/mL) | 605 µM (≈ 256 µg/mL) | 605 µM (≈ 256 µg/mL) | 605 µM (≈ 256 µg/mL) | 303 µM (≈ 128 µg/mL) | 605 µM (≈ 256 µg/mL) | 605 µM (≈ 256 µg/mL)
3 | CC(=O)Cn1cc(C(C)=O)c(=O)c2cc(F)c(Cl)cc21 | 868 µM (≈ 257 µg/mL) | 1740 µM (≈ 513 µg/mL) | 868 µM (≈ 257 µg/mL) | 868 µM (≈ 257 µg/mL) | 868 µM (≈ 257 µg/mL) | 868 µM (≈ 257 µg/mL) | 868 µM (≈ 257 µg/mL) | 1740 µM (≈ 513 µg/mL) | 868 µM (≈ 257 µg/mL) | 1740 µM (≈ 513 µg/mL) | 1740 µM (≈ 513 µg/mL) | 868 µM (≈ 257 µg/mL) | 868 µM (≈ 257 µg/mL) | 434 µM (≈ 128 µg/mL) | 217 µM (≈ 64.2 µg/mL) | 434 µM (≈ 128 µg/mL)
4 | C/C(Cn1cc(-c2csc(C)n2)c(=O)c2cc(F)c(F)cc21)=N\NC(N)=S | 1260 µM (≈ 513 µg/mL) | 1260 µM (≈ 513 µg/mL) | 1260 µM (≈ 513 µg/mL) | 1260 µM (≈ 513 µg/mL) | 314 µM (≈ 128 µg/mL) | 1260 µM (≈ 513 µg/mL) | 1260 µM (≈ 513 µg/mL) | 1260 µM (≈ 513 µg/mL) | 629 µM (≈ 256 µg/mL) | 1260 µM (≈ 513 µg/mL) | 1260 µM (≈ 513 µg/mL) | 1260 µM (≈ 513 µg/mL) | 1260 µM (≈ 513 µg/mL) | 314 µM (≈ 128 µg/mL) | 1260 µM (≈ 513 µg/mL) | 314 µM (≈ 128 µg/mL)
5 | CC(=O)Cn1cc(-c2csc(N)n2)c(=O)c2cc(F)ccc21 | 51 µM (≈ 16.2 µg/mL) | 404 µM (≈ 128 µg/mL) | 404 µM (≈ 128 µg/mL) | 404 µM (≈ 128 µg/mL) | 807 µM (≈ 256 µg/mL) | 404 µM (≈ 128 µg/mL) | 404 µM (≈ 128 µg/mL) | 404 µM (≈ 128 µg/mL) | 807 µM (≈ 256 µg/mL) | 404 µM (≈ 128 µg/mL) | 404 µM (≈ 128 µg/mL) | 202 µM (≈ 64.1 µg/mL) | 807 µM (≈ 256 µg/mL) | 404 µM (≈ 128 µg/mL) | 1620 µM (≈ 513 µg/mL) | 404 µM (≈ 128 µg/mL)
6 | Cc1nc(-c2c[nH]c3cc(Cl)c(F)cc3c2=O)cs1 | 109 µM (≈ 32.1 µg/mL) | 871 µM (≈ 257 µg/mL) | 435 µM (≈ 128 µg/mL) | 435 µM (≈ 128 µg/mL) | 435 µM (≈ 128 µg/mL) | 1740 µM (≈ 513 µg/mL) | 435 µM (≈ 128 µg/mL) | 871 µM (≈ 257 µg/mL) | 871 µM (≈ 257 µg/mL) | 871 µM (≈ 257 µg/mL) | 435 µM (≈ 128 µg/mL) | 435 µM (≈ 128 µg/mL) | 871 µM (≈ 257 µg/mL) | 435 µM (≈ 128 µg/mL) | 218 µM (≈ 64.3 µg/mL) | 871 µM (≈ 257 µg/mL)
7 | C/C(Cn1cc(-c2csc(N)n2)c(=O)c2cc(F)ccc21)=N\NC(N)=S | 328 µM (≈ 128 µg/mL) | 328 µM (≈ 128 µg/mL) | 164 µM (≈ 64 µg/mL) | 656 µM (≈ 256 µg/mL) | 328 µM (≈ 128 µg/mL) | 328 µM (≈ 128 µg/mL) | 164 µM (≈ 64 µg/mL) | 82 µM (≈ 32 µg/mL) | 328 µM (≈ 128 µg/mL) | 82 µM (≈ 32 µg/mL) | 328 µM (≈ 128 µg/mL) | 82 µM (≈ 32 µg/mL) | 656 µM (≈ 256 µg/mL) | 656 µM (≈ 256 µg/mL) | 656 µM (≈ 256 µg/mL) | 656 µM (≈ 256 µg/mL)
8 | Nc1nc(-c2c[nH]c3c(F)cccc3c2=O)cs1 | 490 µM (≈ 128 µg/mL) | 981 µM (≈ 256 µg/mL) | 981 µM (≈ 256 µg/mL) | 490 µM (≈ 128 µg/mL) | 490 µM (≈ 128 µg/mL) | 981 µM (≈ 256 µg/mL) | 981 µM (≈ 256 µg/mL) | 981 µM (≈ 256 µg/mL) | 490 µM (≈ 128 µg/mL) | 981 µM (≈ 256 µg/mL) | 981 µM (≈ 256 µg/mL) | 981 µM (≈ 256 µg/mL) | 981 µM (≈ 256 µg/mL) | 981 µM (≈ 256 µg/mL) | 245 µM (≈ 64 µg/mL) | 981 µM (≈ 256 µg/mL)
